Assay results reported in patent US8362038B2, “1-isopropyl-2-oxo-1,2-dihydropyridine-3-carboxamide derivatives having 5-HT4 receptor agonistic activity” (Pfizer Inc., priority 2004, dated 2013).
Structures can show the parent of a compound that is named as a salt.

Legend:
Human 5-HT4(d) = target: T1, Human 5-HT4(d) (Homo sapiens, UniProt Q13639); assay: Human 5-HT4 binding ([3H]-GR113808 displacement, SPA); conditions: for Ki: membranes of human 5-HT4(d) transfected HEK293 cells, [3H]-GR113808 0.2 nM
T1 construct: expressed in transfected cells; host or cells: HEK293
Description: The 5-HT4 receptor binding affinities of the compounds of this invention are determined by the following procedures.
Human 5-HT4(d) transfected HEK293 cells were prepared and grown in-house. The collected cells were suspended in 50 mM HEPES (pH 7.4 at 4° C.) supplemented with protease inhibitor cocktail (Boehringer, 1:1000 dilution) and homogenized using a hand held Polytron PT 1200 disruptor set at full power for 30 sec on ice. The homogenates were centrifuged at 40,000×g at 4° C. for 30 min. The pellets were then resuspended in 50 mM HEPES (pH 7.4 at 4° C.) and centrifuged once more in the same manner. The final pellets were resuspended in an appropriate volume of 50 mM HEPES (pH 7.4 at 25° C.), homogenized, aliquoted and stored at −80° C. until use. An aliquot of membrane fractions was used for protein concentration determination using BCA protein assay kit (PIERCE) and ARVOsx plate reader (Wallac).
For the binding experiments, 25 μl of test compounds were incubated with 25 μl of [^3H]-GR113808 (Amersham, final 0.2 nM) and 150 μl of membrane homogenate and WGA-SPA beads (Amersham) suspension solutions (10 μg protein and 1 mg SPA beads/well) for 60 minutes at room temperature. Nonspecific binding was determined by 1 μM GR113808 (Tocris) at the final concentration. Incubation was terminated by centrifugation at 1000 rpm. Receptor-bound radioactivity was quantified by counting with MicroBeta plate counter (Wallac).

Caco-2 cells = assay: Caco-2 permeability; format: in vitro ADME
Description: (§1) Caco-2 permeability was measured according to the method described in Shiyin Yee, Pharmaceutical Research, 763 (1997).
(§2) Caco-2 cells were grown on filter supports (Falcon HTS multiwell insert system) for 14 days. Culture medium was removed from both the apical and basolateral compartments and the monolayers were preincubated with pre-warmed 0.3 ml apical buffer and 1.0 ml basolateral buffer for 0.5 hour at 37° C. in a shaker water bath at 50 cycles/min. The apical buffer consisted of Hanks Balanced Salt Solution, 25 mM D-glucose monohydrate, 20 mM MES Biological Buffer, 1.25 mM CaCl2 and 0.5 mM MgCl2 (pH 6.5). The basolateral buffer consisted of Hanks Balanced Salt Solution, 25 mM D-glucose monohydrate, 20 mM HEPES Biological Buffer, 1.25 mM CaCl2 and 0.5 mM MgCl2 (pH 7.4). At the end of the preincubation, the media was removed and test compound solution (10 μM) in buffer was added to the apical compartment. The inserts were moved to wells containing fresh basolateral buffer at 1 hr. Drug concentration in the buffer was measured by LC/MS analysis.
(§3) Flux rate (F, mass/time) was calculated from the slope of cumulative appearance of substrate on the receiver side and apparent permeability coefficient (Papp) was calculated from the following equation. Papp(cm/sec)=(F*VD)/(SA*MD)
(§4) where SA is surface area for transport (0.3 cm^2), VD is the donor volume (0.3 ml), MD is the total amount of drug on the donor side at t=0. All data represent the mean of 2 inserts. Monolayer integrity was determined by Lucifer Yellow transport.

Caco-2 permeability = format: in vitro ADME; conditions: human, Caco-2; apical pH 6.5 to basolateral pH 7.4, 10 μM, mean of 2 inserts; read-out: Caco2 Permeability [Papp]
Description: as §1, §2, §3, §4

T1 sequence (Q13639 1-360 isoform Q13639-3): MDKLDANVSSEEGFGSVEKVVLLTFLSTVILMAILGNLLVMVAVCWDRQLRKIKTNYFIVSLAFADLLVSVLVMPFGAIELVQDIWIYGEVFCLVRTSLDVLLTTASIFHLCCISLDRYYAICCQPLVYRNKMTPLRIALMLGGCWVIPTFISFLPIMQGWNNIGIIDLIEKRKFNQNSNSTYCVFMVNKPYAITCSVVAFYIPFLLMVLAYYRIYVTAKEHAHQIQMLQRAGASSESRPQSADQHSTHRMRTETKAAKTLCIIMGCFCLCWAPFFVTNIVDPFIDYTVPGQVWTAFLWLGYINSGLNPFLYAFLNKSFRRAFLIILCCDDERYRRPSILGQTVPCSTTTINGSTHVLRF

SMILES	melting point	other results
Cc1c(Cl)cc(C(=O)NCC2CCN(CC3(O)CCOCC3)CC2)c(=O)n1C(C)C (as salt: hydrochloride) [Example 1, 5-Chloro-N-({1-[(4-hydroxytetrahydro-2H-pyran-4-yl)methyl]piperidin-4-yl}methyl)-1-isopropyl-6-methyl-2-oxo-1,2-dihydropyridine-3-carboxamide]	283 °C (dec.)	–
CCc1c(Cl)cc(C(=O)NCC2CCN(CC3(O)CCOCC3)CC2)c(=O)n1C(C)C (as salt: salt) [Example 2, 5-Chloro-6-ethyl-N-({1-[(4-hydroxytetrahydro-2H-pyran-4-yl)methyl]piperidin-4-yl}methyl)-1-isopropyl-2-oxo-1,2-dihydropyridine-3-carboxamide]	123 °C (dec.)	–
CCCCN1CCC(CNC(=O)c2cc(Cl)c(N)n(C)c2=O)CC1 [Compound A]	–	affinity / binding activity to 5-HT4 receptor (in words) (Human 5-HT4(d)): weak affinity; Ki (Human 5-HT4(d)): > 500 nM; permeability against caco2 membrane (in words) (Caco-2 cells): low permeability; Papp A→B at 10 μM (Caco-2 permeability): 2 nm/s
Cc1c(Cl)cc(C(=O)NCC2CCN(CC3(O)CCOCC3)CC2)c(=O)n1C(C)C [Example 1, 5-Chloro-N-({1-[(4-hydroxytetrahydro-2H-pyran-4-yl)methyl]piperidin-4-yl}methyl)-1-isopropyl-6-methyl-2-oxo-1,2-dihydropyridine-3-carboxamide]	–	Ki (Human 5-HT4(d)): 10.9 nM; Papp A→B at 10 μM (Caco-2 permeability): 53 nm/s
Cc1c(Cl)cc(C(=O)NCC2CCN(CC3CCCCC3)CC2)c(=O)n1C(C)C [Example 6, 5-Chloro-N-{[1-(cyclohexylmethyl)piperidin-4-yl]methyl}-1-isopropyl-6-methyl-2-oxo-1,2-dihydropyridine-3-carboxamide]	168 °C (dec.)	–
Cc1c(Cl)cc(C(=O)NCC2CCN(CC3(O)CCCCC3)CC2)c(=O)n1C(C)C [Example 7, 5-Chloro-N-({1-[(1-Hydroxycyclohexyl)Methyl]Piperidin-4-Yl}Methyl)-1-Isopropyl-6-Methyl-2-Oxo-1,2-Dihydropyridine-3-Carboxamide]	187 °C (dec.)	–

Now from value to compound, other results behind:

melting point	SMILES	other results
178 °C (dec.)	Cc1cc(C(=O)NCC2CCN(CC3(O)CCOCC3)CC2)c(=O)n(C(C)C)c1C (as salt: salt) [Example 3, N-({1-[(4-Hydroxytetrahydro-2H-pyran-4-yl)methyl]piperidin-4-yl}methyl)-1-isopropyl-5,6-dimethyl-2-oxo-1,2-dihydropyridine-3-carboxamide]	–
205 °C (dec.)	Cc1c(Br)cc(C(=O)NCC2CCN(CC3(O)CCOCC3)CC2)c(=O)n1C(C)C (as salt: salt) [Example 4, 5-Bromo-N-({1-[(4-hydroxytetrahydro-2H-pyran-4-yl)methyl]piperidin-4-yl}methyl)-1-isopropyl-6-methyl-2-oxo-1,2-dihydropyridine-3-carboxamide]	–
133 °C (dec.)	Cc1c(F)cc(C(=O)NCC2CCN(CC3(O)CCOCC3)CC2)c(=O)n1C(C)C [Example 5, 5-Fluoro-N-({1-[(4-hydroxytetrahydro-2H-pyran-4-yl)methyl]piperidin-4-yl}methyl)-1-isopropyl-6-methyl-2-oxo-1,2-dihydropyridine-3-carboxamide]	–
